In article PMC7927096, “Dipeptides of S-Substituted Dehydrocysteine as Artzyme Building Blocks: Synthesis, Complexing Abilities and Antiproliferative Properties” (International Journal of Molecular Sciences, 2021):
Where a name gives a salt, the structure may show the parent alone.

Columns and labels:
[1] = test system: ten diverse human cancer cells lines and murine non-tumorigenic cell line (Balb/3T3); assay: Antiproliferative screen, whole cell line panel (statements in words); type: cell-based; conditions: SRB, across cell lines
Source text: (§1) Ten different human cancer cell lines (including drug-resistant sublines) and one non-tumorigenic murine fibroblasts cell line were used to determine antiproliferative activity of the tested compounds. The MDA-MB-231 (breast adenocarcinoma), UM-UC-3 (urinary bladder transitional cell carcinoma), LoVo (colorectal adenocarcinoma), LoVo^Dx (colorectal adenocarcinoma, doxorubicin-resistant) and Balb/3T3 (non-tumorigenic murine fibroblasts) were purchased from the American Type Culture Collection (ATCC; Rockville, USA). The MCF-7 (breast adenocarcinoma) and A549 (lung carcinoma) were purchased from European Collection of Authenticated Cell Cultures (ECACC; Porton Down, UK). The UM-UC-3^CDDP, UM-UC-3^GEM, UM-UC-3^VBL, and UM-UC-3^CDDP/GEM cell lines were established at Hirszfeld Institute of Immunology and Experimental Therapy of the Polish Academy of Sciences (HIIET, PAS, Wroclaw, Poland) by the continuous exposure to the increasing concentrations of corresponding cytostatics.
(§2) The Balb/3T3 and UM-UC-3 were cultured in Dulbecco’s Modified Eagle Medium (DMEM; Life Technologies, UK) supplemented with 10% (v/v) fetal bovine serum (FBS; GE Healthcare HyClone, Logan, USA) and 2 mM L-glutamine (Sigma-Aldrich, Poznań, Poland). The UM-UC-3^CDDP, UM-UC-3^GEM, UM-UC-^3VBL, and UM-UC-3^CDDP/GEM culture media were additionally supplemented with appropriate cytostatics: 2.5 µg/mL cisplatin (Accord, Warsaw, Poland) for UM-UC-3^CDDP, 500 nM gemcitabine (Sigma-Aldrich, Poznań, Poland) for UM-UC-3^GEM, 5 nM vinblastine (Sigma-Aldrich, Poznań, Poland) for UM-UC-3VBL, 2.5 µg/mL cisplatin and 500 nM gemcitabine for UM-UC-3^CDDP/GEM. The LoVo cell line was cultured in F-12K Nutrient Mixture (F-12K; Corning, Corning, USA), supplemented with 10% (v/v) FBS. LoVo^Dx culture medium was additionally supplemented with doxorubicin 100 ng/mL (Accord, Warsaw, Poland). The MCF-7 cell line was cultured in Eagle’s medium (HIIET, PAS, Wroclaw, Poland), supplemented with 10% (v/v) FBS (Sigma-Aldrich, Poznań, Poland), 2 mM L-glutamine, MEM non-essential amino acid solution 1% (v/v) (Sigma-Aldrich, Poznań, Poland), insulin 8 µg/mL (Sigma-Aldrich, Poznań, Poland). The MDA-MB-231 cell line was cultured in RPMI 1640 (HIIET, PAS, Wroclaw, Poland), supplemented with 10% (v/v) FBS (Sigma-Aldrich, Poznań, Poland) and 2 mM L-glutamine. The A 549 cell line was cultured in OptiMEM (HIIET, PAS, Wroclaw, Poland), supplemented with 5% (v/v) FBS (GE Healthcare HyClone, Logan, USA) and 2 mM L-glutamine. All culture media were supplemented with antibiotics—100 μg/mL streptomycin (Polfa Tarchomin, Warsaw, Poland) and 100 U/mL penicillin (Sigma-Aldrich, Poznań, Poland).
(§3) All cell lines were cultured in a humidified atmosphere at 37 °C with 5% (v/v) CO2 and passaged twice a week using EDTA-Trypsin solution (pH 8; HIIET, Wroclaw, Poland) as a detachment agent.
(§4) All compounds, for antiproliferative activity assessment, were stored at […] as 50 mM solutions in dimethyl sulfoxide (DMSO; Avantor Performance Materials, Gliwice, Poland).
(§5) The cells were seeded on 384-well plates (Greiner Bio One, Kremsmünster, Austria) at 1 × 10^3 cells/well density for A 549, UM-UC-3, UM-UC-3^CDDP, UM-UC-3^GEM, UM-UC-3^CVBL and UM-UC-3^CDDP/GEM cell lines. Other cell lines were seeded at 2 × 10^3 cells/well. After overnight incubation, compounds were applied at eight concentrations (ranging from 100 µM to 0.03 µM). After 72 h incubation, the sulforhodamine B (SRB) assay based on Skehan et al. was carried out with slight modifications. In brief, 50 µL of the medium was replaced with 30 µL/well of 25% (w/v) trichloroacetic acid (Avantor Performance Materials, Gliwice, Poland). After 1 h incubation at room temperature, plates were washed three times with tap water, and 20 µL of 0.1% (w/v) solution of sulforhodamine B (Sigma-Aldrich, Poznan, Poland) in 1% (v/v) acetic acid (Avantor Performance Materials, Gliwice, Poland) was added to each well. […]

[2] = test system: Balb/3T3 (non-tumorigenic murine fibroblasts); assay: Antiproliferative activity, sulforhodamine B assay; type: cell-based; conditions: Mus musculus, BALB/3T3; SRB, 72 h incubation; non-tumorigenic line; read-out: IC50 ± SD, Balb/3T3
Source text: as §1, §2, §3, §4, §5

[3] = test system: LoVo (colorectal adenocarcinoma); assay: Antiproliferative activity, sulforhodamine B assay; type: cell-based, human; conditions: Homo sapiens, LoVo; SRB, 72 h incubation; read-out: IC50 ± SD, LoVo
Source text: as §1, §2, §3, §4, §5

A549 (lung carcinoma) = assay: Antiproliferative activity, sulforhodamine B assay; type: cell-based, human; conditions: Homo sapiens, A549; SRB, 72 h incubation; read-out: IC50 ± SD, A-549
Source text: as §1, §2, §3, §4, §5

[4] = test system: LoVo^DX (colorectal adenocarcinoma, doxorubicin-resistant); assay: Antiproliferative activity, sulforhodamine B assay; type: cell-based, human; conditions: Homo sapiens, LoVo/DX, SRB, 72 h incubation, read-out: IC50 ± SD, LoVo^DX
Source text: as §1, §2, §3, §4, §5

[5] = test system: MCF-7 (breast adenocarcinoma); assay: Antiproliferative activity, sulforhodamine B assay; type: cell-based, human; conditions: Homo sapiens, MCF7; SRB, 72 h incubation; read-out: IC50 ± SD, MCF-7
Source text: as §1, §2, §3, §4, §5

[6] = test system: MDA-MB-231 (breast adenocarcinoma); assay: Antiproliferative activity, sulforhodamine B assay; type: cell-based, human; conditions: Homo sapiens, MDA-MB-231; SRB, 72 h incubation; read-out: IC50 ± SD, MDA-MB-231
Source text: as §1, §2, §3, §4, §5

[7] = Potentiometric titration and spectroscopy, stability constants of Cu(II)-complexes; type: physicochemical; conditions: for Cu(II) complexing ability (in words): 10a versus 9a below pH 5, 9a versus Gly(Z)Phe, nL:nCu(II) = 1:1
Procedure: (§6) The pH-metric measurements were performed on Metrohm 905 Titrando system equipped with combined Biotrop® electrode. The titrant was 0.1 M KOH (Merck, Germany) freed of CO2 by bubbling Ar gas for 3 h. The electrode calibration was performed before each titration. The volume of all the samples was 1.5 mL and the measurements were carried out at a range of pH of 2.5–11.0 in thermostated vessels at 298 K in an inert atmosphere of Ar gas. The ligands 9a and 10a were diluted in hydrochloric acid (pH = 2.5), prepared from 37% HCl (Sigma-Aldrich, Poland). Their concentration was set up at a range of 1.0–2.0 × 10^−3 M and the ionic strength of 0.1 M was achieved by the addition of KCl (Sigma-Aldrich, Poland). The ligand-metal ion systems were prepared by addition of CuCl2 (Sigma-Aldrich, Poland). stock solutions to reach final ligand to metal ratio (nL: nCu^2+) being 2:1 or 1:1.
(§7) The protonation (βi = [HiL]/[H^+]^i[L]), stability constants (βpqr = [MpHqLr]/[M]^p[H]^q[L]^r), and stoichiometry of complexes were calculated using the HYPERQUAD program. The distribution species plots were made by HySS program. The standard deviations were computed for all the constants and indicated the presence of only random errors, which was a good evidence of the presence of each species in the equilibrium.
The UV-Vis absorption measurements were recorded on Varian Carry 50 Bio spectrophotometer. All spectra were collected in a quartz cuvette with 1 cm path length at 298 K. The spectral range was 300–800 nm with resolution 0.1 nm. The molar extinction coefficients (ε [M^−1cm^−1]) were calculated for each spectrum at a wavelength of maximum absorption.
The Circular Dichroism spectra (CD) and Magnetic Circular Dichroism (MCD) were measured on a JASCO J 600 spectropolarimeter in a range of 230–800 nm with 0.1 nm resolution. The optical length of the quartz cuvettes was 10 mm. The molar circular dichroism coefficient (Δε [M^−1cm^−1]) was calculated for each spectrum.
The Electron Paramagnetic Resonance (EPR) spectra were recorded on a Brucker ESP 300E spectrometer at X-band frequency (9.5 GHz) at 77 K obtained by the use of liquid nitrogen. The procedure of sample preparation for spectroscopic measurements was the same as in potentiometric titration. The EPR samples were protected by adding 30% of ethylene glycol (Sigma-Aldrich, Poland). The pH of the samples was determined by adding a small quantity of a concentrated solution of KOH (Merck, Germany) to achieve the desired value and controlled by Mettler Toledo pH-meter equipped with combined electrode InLab®Micro. The simulation of the EPR spectrum was performed by the Hyperfine Spectrum program written by W.R. Hagen.

[8] = Potentiometric titration, protonation constants of free ligands; type: physicochemical; conditions: 298 K, ionic strength 0.1 M KCl; for protonation constant logβ, H2L / protonation constant logβ, H3L / protonation constant logβ, HL: ± SD
Procedure: as §6, §7

[9] = 298 K, ionic strength 0.1 M KCl
[10] = 298 K, ionic strength 0.1 M KCl, ± SD

| IC50 (A549 (lung carcinoma)) [µM] | IC50 [5] [µM] | IC50 [6] [µM] | logK, Cu2L2H [7, 9] | logK, CuL [7, 9] | logK, CuL2H [7, 9] | logK, CuLH2 [7, 9] | stability constant logβ, Cu2L2H [7, 10] | stability constant logβ, Cu2L2H-1 [7, 10] | stability constant logβ, CuL [7, 10] | stability constant logβ, CuL2 [7, 10] | stability constant logβ, CuL2H [7, 10] | stability constant logβ, CuLH2 [7, 10] | stability constant logβ, CuLH-1 [7, 10] | protonation constant logK, H3L [8] | protonation constant logK, HL [8] | protonation constant logβ, H2L [8] | protonation constant logβ, H3L [8] | Structure (SMILES) | antiproliferative activity (in words) [1] | Cu(II) complexing ability (in words) [7] | other results |
| --- | --- | --- | --- | --- | --- | --- | --- | --- | --- | --- | --- | --- | --- | --- | --- | --- | --- | --- | --- | --- | --- |
| 33.4 ± 6.4 | > 100 | 56 ± 7.1 |  |  |  |  |  |  |  |  |  |  |  |  |  |  |  | COC(=O)/C(=C/Sc1nc2ccccc2s1)NC(=O)CN [Compound 9d, HCl Gly-ΔCys(S-benzothiazole)-OMe] |  |  |  |
|  |  |  | 14.59 | 10.61 | 8.45 | 8.83 | 37.54 ± 0.06 | 22.95 ± 0.06 | 15.00 ± 0.01 | 20.37 ± 0.05 | 28.82 ± 0.11 | 23.83 ± 0.03 | 4.39 ± 0.03 | 6.85 | 10.42 | 18.53 ± 0.02 | 25.38 ± 0.02 | COC(=O)/C(=C/Sc1nc[nH]n1)NC(=O)[C@@H](N)Cc1ccccc1 [Compound 10a, HCl Phe-ΔCys(S-triazole)-OMe] |  | significantly more effective binder of Cu(II) | protonation constant logβ, HL [8]: 10.42 ± 0.01 |

Second part, the compound before the results:

| Structure (SMILES) | IC50 (A549 (lung carcinoma)) [µM] | IC50 [5] [µM] | IC50 [6] [µM] | logK, Cu2L2H [7, 9] | logK, CuL [7, 9] | logK, CuL2H [7, 9] | logK, CuLH2 [7, 9] | stability constant logβ, Cu2L2H [7, 10] | stability constant logβ, Cu2L2H-1 [7, 10] | stability constant logβ, CuL [7, 10] | stability constant logβ, CuL2 [7, 10] | stability constant logβ, CuL2H [7, 10] | stability constant logβ, CuLH2 [7, 10] | stability constant logβ, CuLH-1 [7, 10] | protonation constant logK, H3L [8] | protonation constant logK, HL [8] | protonation constant logβ, H2L [8] | protonation constant logβ, H3L [8] | antiproliferative activity (in words) [1] | Cu(II) complexing ability (in words) [7] | other results |
| --- | --- | --- | --- | --- | --- | --- | --- | --- | --- | --- | --- | --- | --- | --- | --- | --- | --- | --- | --- | --- | --- |
| COC(=O)/C(=C/Sc1nc[nH]n1)NC(=O)CNC(=O)OC(C)(C)C [Compound 6a, Boc-Gly-ΔCys(S-triazole)-OMe] |  |  |  |  |  |  |  |  |  |  |  |  |  |  |  |  |  |  | markedly lower, if any, activity |  |  |
| COC(=O)/C(=C/Sc1nc2c(N)ncnc2[nH]1)NC(=O)CNC(=O)OC(C)(C)C [Compound 6e, Boc-Gly-ΔCys(S-adenine)-OMe] |  |  |  |  |  |  |  |  |  |  |  |  |  |  |  |  |  |  | markedly lower, if any, activity |  |  |
| COC(=O)/C(=C/Sc1nc2c(N)ncnc2[nH]1)NC(=O)[C@H](Cc1ccccc1)NC(=O)OC(C)(C)C [Compound 7e, Boc-Phe-ΔCys(S-adenine)-OMe] | > 100 | 101 ± 11.3 | 74.5 ± 7.7 |  |  |  |  |  |  |  |  |  |  |  |  |  |  |  | markedly lower, if any, activity |  | IC50 [2]: > 100 µM; IC50 [3]: 81.7 ± 12.4 µM; IC50 [4]: > 100 µM |
| COC(=O)/C(=C/Sc1nc[nH]n1)NC(=O)CN [Compound 9a, HCl Gly-ΔCys(S-triazole)-OMe] |  |  |  | 14.45 | 10.42 | 8.73 | 9.34 | 36.61 ± 0.03 | 22.16 ± 0.06 | 14.18 ± 0.01 | 20.06 ± 0.04 | 28.79 ± 0.04 | 23.52 ± 0.03 | 3.76 ± 0.04 | 7.26 | 10.09 | 18.05 ± 0.01 | 25.31 ± 0.01 |  | significantly more effective in Cu(II) coordination | logK, CuL2 [7, 9]: 11.35; logK, CuL2H2 [7, 9]: 7.67; stability constant logβ, CuL2H2 [7, 10]: 36.46 ± 0.04; stability constant logβ, CuL2H-1 [7, 10]: 8.71 ± 0.07; corrected stability constant (logβ = logβCuLH2 − logβH2L) ([7]; CuH2L complex, equimolar conditions): 5.47; logβ* = logβCuL − logKHL ([7]; CuL species, independent of logKtriazole): 4.09; protonation constant logβ, HL [8]: 10.09 ± 0.01 |
